Experimental data as given in article PMC5656322, “BAK1 is involved in AtRALF1-induced inhibition of root cell expansion” (PLoS Genetics, 2017).
Where no end group is shown, it is not given here.

Columns and labels:
[1] = system: AtPRP3, AtHRGP2, CPD and DWF4 genes; experiment: Expression of hormone-responsive genes (RT-PCR, qRT-PCR); format: in vivo, Arabidopsis thaliana; conditions: bak1-1, bak1-3, bak1-4 mutants, 1 μM, 1 h
Experimental: Arabidopsis plants were grown for 10 days in vertical plates and then treated in liquid medium containing 1 μM AtRALF1 for 1 h at room temperature. Control plants were incubated under identical conditions in a peptide-free medium. The total RNA was isolated from the roots of Arabidopsis plants using TRIzol reagent according to the manufacturer’s instructions (Life Technologies). The cDNA was synthesized using the ImProm-II Reverse Transcription System (Promega) and 1 μg of RNA. An aliquot of cDNA (1.5 μl) was used as the template in the PCR reaction, which was performed for 29 cycles, unless indicated otherwise, using gene-specific primers (S1 Table). The glyceraldehyde 3-phosphate dehydrogenase (GAPDH) gene was used as an internal control. All experiments were repeated at least three times with independent biological replicates. The data shown are from one representative experiment.
The qRT-PCR analysis was performed using 10-fold-diluted cDNA, Maxima SYBR Green Rox/qPCR Master Mix (Thermo Scientific) and a StepOne Real-Time PCR System (Applied Biosystems). The glyceraldehyde 3-phosphate dehydrogenase (GAPDH) gene was used as an internal control. […] The threshold cycle (CT) was determined by the instrument, and the ΔΔCT method was used to calculate the fold change in each gene. […] Three replicates were analyzed for each biological sample, and two biological samples were analyzed. […]

BAK1 = BAK1 phosphorylation assay, anti-phosphoserine; format: in vivo, Arabidopsis thaliana; conditions: pBAK1:BAK1-6xHA roots; 1, 2 and 10 μM, 20 min
Experimental: Transgenic plants pBAK1:BAK1-6xHA were grown in vertical plates for 10–15 days. The plants were treated with 0.1 μM BL, 2 μM RALF1(9–49), 1 μM, 2 μM or 10 μM AtRALF1 for 20 min. The roots were isolated, and the microsomal fractions were obtained as described above. The microsomal fractions were incubated with anti-HA beads (EZview Red Anti-HA Affinity Gel, Sigma) for 2 h at 4 °C to immunoprecipitate the BAK1 protein. The unbound materials were removed by washing 3 times. Proteins were separated by SDS/PAGE and further analyzed by protein blotting using anti-HA (Thermo Scientific), or anti-phosphothreonine (Novus Biologicals), or anti-phosphoserine (Novus Biologicals) antibodies.

[2] = system: intact Arabidopsis seedlings; experiment: Binding assay with acridinium-labeled AtRALF34, intact seedlings; design: species or system Arabidopsis thaliana; conditions: 10-fold excess of unlabeled AtRALF1
Experimental: Arabidopsis seedlings were grown for 5 days on vertical plates. Roots were homogenized in extraction buffer [300 mM sucrose, 100 mM Tris-HCl pH 7.5, 25 mM EDTA, 25 mM NaF, 1 mM Na2MoO4, 1 mM PMSF and protease inhibitor cocktail (Roche), adjusted to pH 6.2], and the homogenate was spun at 2,000 x g for 10 min at 4 °C. The supernatant was recovered and centrifuged at 100,000 x g for 50 min at 4 °C to precipitate the microsomal pellet. The pellet was resuspended in the extraction buffer plus 0.5% Triton-X. Seedlings or microsomal fractions were placed in 200 μl of medium and incubated with 7 nM acridinium-labeled peptide (acriAtRALF1 or acriAtRALF34) and different concentrations of AtRALF1, AtRALF34 or RALF1(9–49) for 15–20 min at 4 °C on a shaker. After incubation, the seedlings or microsomal fractions were washed three times with the same medium. Unless indicated otherwise, five entire seedlings and approximately 10 ng of microsomal fractions were used per treatment. The resulting luminescence emissions from the acridinium were measured using a microplate reader (Biotec ELx 800) at 2 s after injecting 50 μl of a solution containing 20 mM H2O2 in 0.1 M NaOH. These experiments were repeated at least three times using independent biological replicates. Duplicates were used for each concentration or treatment. The data shown are from one representative experiment. […]

[3] = system: Arabidopsis seedlings, primary root; conditions: ref [10], cited from earlier work
Description: FERONIA (FER), a receptor-like kinase with an extracellular malectin-like domain, has been identified as the receptor of the root-specific isoform AtRALF1 [10]. LORELEI (LRE) and LRE-like GPI-AP1 (LLG1) are two glycosylphosphatidylinositol-anchored proteins found in ovules and vegetative tissues, respectively, that physically interact with FER and are required for FER delivery to the cell membrane and FER signaling. […] In a search for putative genetic components that might be shared by both the AtRALF1 and BR signaling pathways, we tested mutants lacking different components of the BR signaling pathway in root growth assays with inhibitory concentrations of the AtRALF1 peptide. […] A previous study in which 18 receptor-like proteins were tested in root g ...

Substance: AtRALF1: root-specific RALF isoform in Arabidopsis; recombinant peptide hormone produced in E. coli (ATTKYISYQSLKRNSVPCSRRGASYYNCQNGAQANPYSRGCSKIARCRS; ends and bridges not checked; cysteine pairing not given here)
- up-regulation of AtRALF1-inducible genes [1]: None of the AtRALF1-inducible genes were up-regulated
- BAK1 serine phosphorylation (BAK1): no changes were detected
- effect of unlabeled AtRALF1 on total acriAtRALF34 binding [2]: did not alter the total binding
- root growth inhibition, sensitivity of fer4 ([3]; FERONIA mutant fer4, low concentrations): insensitive to low concentrations of the AtRALF1 peptide
- root growth inhibition ([3]; bak1-4 mutant, 1 μM): the roots of the bak1-4 mutant were inhibited by the peptide
